Measurements as given in US20230218773A1 (priority 2020, published 2023).
pIC50: −log10 of the molar value. Numbered stars: 1 amine (or outer) side, 2 acyl side, 3 side chain; on linkers, the order of the positions; unused ones are H or OH. Square brackets hold non-standard residues; d marks the D form. Peptide text beside a SMILES is read from it. * marks the point of attachment. Dolaproine = CO[C@@H]([C@@H]1CCCN1)[C@@H](C)C(=O)O; Hexanoyl(6-maleimido) = O=C1C=CC(=O)N1CCCCCC(=O)*; Dil = CC[C@H](C)[C@H](NC)[C@@H](CC(=O)O)OC; PABC = O=C(OCc1ccc(N[*:1])cc1)[*:2]; X1 = C[C@@H](N*)[C@@H](O)c1ccccc1; Cit = NC(=O)NCCC[C@H](N)C(=O)O; NMeV = CN[C@H](C(=O)O)C(C)C

Tests used:
[1] = tested on: MIA PaCa2 cells; assay: Uptake of fluorescein-albumin conjugate with macropinocytosis inhibitor, MIA PaCa2 cells; format: cell-based, human; conditions: EIPA 50 μM and 75 μM, flow cytometer
Method: (§1) FIGS. 10A-10B: (A) MIA PaCa2 cells and (B) PANC1 cells were seeded in 12-well plates at 5×10^5 cells/well and allowed to attach overnight. Cells were first starved in serum free medium for 2 hours followed by treatment with macropinocytosis inhibitor (EIPA: 5-(N-Ethyl-N-isopropyl)amiloride) for 30 min. […] Then cells were detached and analyzed by flow cytometer (Accuri). […] (*p<0.05, **p<0.01)

[2] = tested on: PANC1 cells; assay: Uptake of fluorescein-albumin conjugate with macropinocytosis inhibitor, PANC1 cells; format: cell-based, human; conditions: EIPA 50 μM and 75 μM, flow cytometer
Method: as §1

[3] = tested on: MIA PaCa2 cells; assay: MTT assay, MIA PaCa2 cells; format: cell-based, human
Text: (§2) Cell lines and culture: Human pancreatic cancer cell line MIA PaCa2 cells and primary umbilical vein endothelial cells (HUVEC) were purchased from American Type Culture Collection (ATCC). Human pancreatic cancer cell line PANC1 cells were kindly provided by Dr. Zhengrong Cui (College of Pharmacy, The University of Texas at Austin). Mouse mT4-2D pancreatic cancer cell line, which is derived from a Kras^+/LSL-G12DTp53^+/LSL-R172HPdx1-Cre transgenic model of pancreatic cancer, was kindly provided by Dr. Kyaw Aung (Livestrong Cancer Institutes, Dell Medical School, The University of Texas at Austin). MIA PaCa2 cells, PANC1, and mT4-2D cells were maintained in Dulbecco's […] with high glucose (Corning). Cell culture medium was supplemented with 10% fetal bovine serum (Gibco) and 100 U/mL penicillin-streptomycin (Gibco). HUVEC cells were maintained according to protocol provided by ATCC. All cells were maintained at 37° C. in a humidified atmosphere with 5% carbon dioxide.
(§3) MTT Assay: Cells were seeded in 96 well plates at a density of 5,000 cells/well. Cells were incubated overnight to allow attachment to the bottom of the plates. […] Untreated cells were used as control. After the treatments, 10 μL of MTT (3-(4,5-Dimethylthiazol-2-yl)-2,5-Diphenyltetrazolium Bromide, 5 mg/mL) was added to each well and incubated for an additional 4 hours. Then, the medium was replaced with 150 μL dimethyl sulfoxide (DMSO). After the formazan crystals were completely dissolved, the absorbance at 570 nm was read by a plate reader (Infinite®200 Pro, Tecan). Cell survival rate was calculated as follows: […]
(§4) The IC50 (half maximal inhibitory concentration) was calculated using GraphPad Prism 8.

[4] = tested on: PANC1 cells; assay: MTT assay, PANC1 cells; format: cell-based, human
Text: as §2, §3, §4

[5] = tested on: HUVEC cells; assay: MTT assay, HUVEC cells; format: cell-based, human
Text: as §2
MTT Assay: Cells were seeded in 96 well plates at a density of 5,000 cells/well. […] After the formazan crystals were completely dissolved, the absorbance at 570 nm was read by a plate reader (Infinite®200 Pro, Tecan). Cell survival rate was calculated as follows: […]
as §4

[6] = Plasma pharmacokinetics of free and total MMAE in MIA PaCa2 tumor-bearing mice; format: in vivo; conditions: for plasma concentration of free MMAE: 10 min after single intravenous dose, 0.5 mg/kg MMAE equivalent
Method: (§5) Quantification of MMAE by LC-MS: An Agilent 1260 Infinity liquid chromatography system (G1312B) with an Agilent 6530 Q-TOF mass spectrometer was used to detect the drug MMAE. 5 μL of sample was injected into an Eclipse Plus C18 column (50×2.1 mm, 5 μm) followed by a gradient elution at 0.7 mL/min. […] Electrospray ionization source was used in positive mode. To derive standard curves for MMAE, drug standards were spiked into blank matrix along with internal standard. Samples were then prepared for LC-MS analysis. MMAE was monitored at m/z 740 [M+Na]+, 719 [M+H]+, 371 [M+Na+1-1]^2+ and 360 [M+2H]^2±. Deuterated (D8) MMAE as internal standard was monitored at m/z 748 [M+Na]+, 727 [M+H]+, 375 [M+Na+1-1]^2+ and 364 [M+2H]^2±. The peak area of each drug standard was derived by the peak area of internal standard. The peak area ratios were then plotted as a function of standard concentrations and data points were fitted using linear regression (GraphPad). MMAE concentrations in test samples were quantified using the peak area ratio between MMAE and D8-MMAE and calculated using the standard curves.
(§6) Pharmacokinetics and tissue distribution: Thirty-six mice bearing MIA PaCa2 tumors were equally divided into 4 groups. […] All treatment arms were dosed with an equivalent amount of MMAE at 0.5 mg/kg. At 10 min, 24 h, 48 h, 72 h, 96 h and 168 h post-administration, blood samples were collected from 3 mice in each group through tail vein. Plasma was separated immediately using BD microtainer. At 24 h, 72 h and 168 h after administration, 3 mice from each group were euthanized to collect liver, kidney, and tumor tissue samples. Plasma and tissue samples were stored at −80° C. until further analysis.
(§7) To determine the amount of free MMAE in plasma samples, 1 μL D8-MMAE (250 ng/mL) internal control was added into 10 μL plasma samples and then mixed with 89 μL acetonitrile. The mixture was thoroughly mixed and centrifuged (12,000 rpm, 20 min, 4° C.). The supernatant was collected for LC-MS quantification. To determine free MMAE in mouse tissues, weighed tissues were homogenized with ice-cold PBS containing protease inhibitors (cOmplete™ ULTRA Tablets, Roche) using a tissue homogenizer (Fisher Scientific) to a final concentration of 600 mg/mL. The homogenized suspension was centrifuged at 12,000 rpm for 20 min at 4° C. As an internal control, 1 μL D8-MMAE (250 ng/mL) was added into 20 μL of the supernatant and then mixed with 79 μL acetonitrile. After the mixture was mixed and centrifuged, the supernatant was collected for LC-MS for quantification.
(§8) Briefly, freshly prepared papain (Sigma-Aldrich) was added to plasma and tissue samples at a final concentration of 2 mg/mL, and the mixtures were incubated at 40° C. for 16 hours. The resulting samples were treated as method described above for LC-MS quantification.

[7] = Maximum tolerated dose in healthy athymic NCr nude mice; format: in vivo
Method: Maximum tolerated dose: All animal experiments were approved and performed under the guidelines by the Institutional Animal Care and Use Committee at. The University of Texas at Austin. […] Mice were injected every 4 days for a total of 4 repeated doses. Body weight and general appearance of each mice were monitored for 10 days after the last dose of injection.

[8] = Body weight change at 0.9 mg/kg MMAE equivalent dose; format: in vivo, mice; conditions: multiple dosing
Method: FIGS. 15A-15E: Body weight change of mice when dosed with 0.9 mg/kg MMAE equivalent dose. […] Body weights of mice during and after treatments were monitored. (n=5). Data shown as mean±standard deviation. Mice in MMAE group (B) were dosed with 0.9 mg/kg MMAE at Day 0 and 4.

[9] = tested on: MIA PaCa2 xenografts; assay: In vivo antitumor efficacy, MIA PaCa2 xenografts; set-up: species or system mice; conditions: every 4 days, 4 doses; for tumor growth: 0.5 mg/kg MMAE equivalent
Method: Tumor-bearing mouse models: Eight to ten week old athymic female NCr nude mice and C57BL/6 mice (Taconic) were used to establish xenograft mouse model and syngeneic mouse model, respectively. […] The cell suspension was then gently mixed with equal volume of Matrigel® (Corning). Subsequently, 100 μL of each mixed cell suspension (MIA PaCa2 and mT4-2D) was subcutaneously inoculated into both flanks of NCr nude mice and C57BL/6 mice, respectively. After the tumors were palpable, tumor volumes were measured two times a week. The tumor volume was calculated as (1/2×length×[…]).
In vivo antitumor efficacy: Mice bearing MIA PaCa2 xenografts and syngeneic mT4-2D C57BL/6 mice were randomized when the tumor sizes were ˜150 mm^3, respectively. […] Tumor sizes were measured by a digital caliper twice a week starting from Day 0. Mice were euthanized when either tumor volume exceeded 1500 mm^3.
Statistical analysis: All of the experiments were repeated at least three times. Statistical significance was calculated using two-way ANOVA followed by Tukey's test. Survival curve was analyzed by log-rank test using GraphPad Prism 8 software.

[10] = Tissue distribution of free and total MMAE in MIA PaCa2 tumor-bearing mice; format: in vivo; conditions: 24 hours after single dose
Method: as §5, §6, §7, §8

[11] = tested on: soft-tissue sarcoma; conditions: minimal cardiac toxicity; cited from earlier work
[12] = total MMAE in plasma, 0.5 mg/kg i.v.

CCN(c1nc(N)c(C(=O)N=C(N)N)nc1Cl)C(C)C [EIPA, 5-(N-Ethyl-N-isopropyl)amiloride]
inhibition of uptake of fluorescein-albumin conjugate (ALDC1) [1]: significantly inhibit
inhibition of uptake of fluorescein-albumin conjugate (ALDC1) [2]: significantly inhibit

CC[C@H](C)[C@@H]([C@@H](CC(=O)N1CCC[C@H]1[C@H](OC)[C@@H](C)C(=O)N[C@H](C)[C@@H](O)c1ccccc1)OC)N(C)C(=O)[C@@H](NC(=O)[C@@H](NC)C(C)C)C(C)C [MMAE, monomethyl auristatin E] (H-[NMeV]V[Dil][Dolaproine]-X1)
pIC50 ([3]; 24 hours): 9.27
pIC50 ([3]; 48 hours): 9.34
pIC50 ([3]; 72 hours): 9.30
pIC50 ([4]; 24 hours): 9.28
pIC50 ([4]; 48 hours): 9.68
pIC50 ([4]; 72 hours): 9.68
pIC50 ([5]; 24 hours): 10.17
pIC50 ([5]; 48 hours): 10.92
plasma concentration of free MMAE [6]: 86.03 ± 17.78 ng/mL
maximum tolerated dose ([7]; MMAE equivalent dose, every 4 days, 4 doses, body weight change within 20%): approximately 0.5 mg/kg
loss of body weight [8]: > 20%
tumor growth [9]: slowed down tumor growth

CC[C@H](C)[C@@H]([C@@H](CC(=O)N1CCC[C@H]1[C@H](OC)[C@@H](C)C(=O)N[C@H](C)[C@@H](O)c1ccccc1)OC)N(C)C(=O)[C@@H](NC(=O)[C@H](C(C)C)N(C)C(=O)OCc1ccc(NC(=O)[C@H](CCCNC(N)=O)NC(=O)[C@@H](NC(=O)CCCCCN2C(=O)C=CC2=O)C(C)C)cc1)C(C)C [MMAE-MAL, mc-vc-pab-MMAE] ({Hexanoyl(6-maleimido)}-V[Cit][PABC][NMeV]V[Dil][Dolaproine]-X1)
plasma concentration of free MMAE [6]: 669.67 ± 78.94 ng/mL
premature release of MMAE in plasma compared to the ALDC1 group ([6]; free MMAE, 10 min after dosing, 0.5 mg/kg): 13 fold
AUC 0-∞ [6, 12]: 141.1938 µg·h/mL
AUMC 0-∞ [6, 12]: 2827552.1 ng/ml*h^2
Cl [6, 12]: 3.54E−06 (mg/kg)/(ng/ml)/h
MRT [6, 12]: 20.02 h
T1/2 [6, 12]: 27.82 h
AUC 0-t ([6]; total MMAE in plasma, time 0 to 168 hours, 0.5 mg/kg i.v.): 139.9281 µg·h/mL
amount of free MMAE in tumor compared to the MMAE group [10]: about 2 fold
accumulation of free MMAE in tumor ([10]; 0.5 mg/kg MMAE): 2.2 % ID/g
total MMAE in liver ([10]; 0.5 mg/kg MMAE): 0.3 % ID/g
total MMAE in tumor ([10]; 0.5 mg/kg MMAE): 3.3 % ID/g
free MMAE in the liver and kidney ([10]; no statistical difference to MMAE group): low levels
maximum tolerated dose compared with ALDC1 ([7]; percent weight loss from original weight): lower maximum tolerated dose
loss of body weight [8]: ~20%
tumor growth [9]: significantly delayed
median survival of tumor-bearing mice ([9]; 0.5 mg/kg equivalent to MMAE): 81 days

COc1cccc2c1C(=O)c1c(O)c3c(c(O)c1C2=O)C[C@@](O)(/C(CO)=N/NC(=O)CCCCCN1C(=O)C=CC1=O)C[C@@H]3O[C@H]1C[C@H](N)[C@H](O)[C@H](C)O1 [aldoxorubicin]
safely administered dose compared to doxorubicin [11]: 3.47 fold
